Measurements reported in ChEMBL document CHEMBL5653628, “Selective JAK3 Inhibitors with a Covalent Reversible Binding Mode Targeting a New Induced Fit Binding Pocket” (Cell Chem Biol, 2016).

Columns and labels:
[1] = target: Tyrosine-protein kinase Tec (Homo sapiens, UniProt P42680); assay: Inhibition of TEC (unknown origin)
[2] = target: Epidermal growth factor receptor (Homo sapiens, UniProt P00533); assay: Inhibition of EGFR (unknown origin)
[3] = target: Tyrosine-protein kinase TXK (Homo sapiens, UniProt P42681); assay: Inhibition of TXK (unknown origin)
[4] = target: Receptor tyrosine-protein kinase erbB-2 (Homo sapiens, UniProt P04626); assay: Inhibition of ERB-B2 (unknown origin)
[5] = target: Cytoplasmic tyrosine-protein kinase BMX (Homo sapiens, UniProt P51813); assay: Inhibition of BMX (unknown origin)
[6] = target: Serine/threonine-protein kinase 16 (Homo sapiens, UniProt O75716); assay: Inhibition of STK16 (unknown origin) by trFRET binding assay
[7] = target: Vascular endothelial growth factor receptor 1 (Homo sapiens, UniProt P17948); assay: Inhibition of FLT1 (unknown origin) by trFRET binding assay
[8] = target: T1, Tyrosine-protein kinase JAK3 (Homo sapiens, UniProt P52333); assay: Inhibition of JAK3 (unknown origin) by trFRET binding assay
T1 sequence (P52333 whole entry): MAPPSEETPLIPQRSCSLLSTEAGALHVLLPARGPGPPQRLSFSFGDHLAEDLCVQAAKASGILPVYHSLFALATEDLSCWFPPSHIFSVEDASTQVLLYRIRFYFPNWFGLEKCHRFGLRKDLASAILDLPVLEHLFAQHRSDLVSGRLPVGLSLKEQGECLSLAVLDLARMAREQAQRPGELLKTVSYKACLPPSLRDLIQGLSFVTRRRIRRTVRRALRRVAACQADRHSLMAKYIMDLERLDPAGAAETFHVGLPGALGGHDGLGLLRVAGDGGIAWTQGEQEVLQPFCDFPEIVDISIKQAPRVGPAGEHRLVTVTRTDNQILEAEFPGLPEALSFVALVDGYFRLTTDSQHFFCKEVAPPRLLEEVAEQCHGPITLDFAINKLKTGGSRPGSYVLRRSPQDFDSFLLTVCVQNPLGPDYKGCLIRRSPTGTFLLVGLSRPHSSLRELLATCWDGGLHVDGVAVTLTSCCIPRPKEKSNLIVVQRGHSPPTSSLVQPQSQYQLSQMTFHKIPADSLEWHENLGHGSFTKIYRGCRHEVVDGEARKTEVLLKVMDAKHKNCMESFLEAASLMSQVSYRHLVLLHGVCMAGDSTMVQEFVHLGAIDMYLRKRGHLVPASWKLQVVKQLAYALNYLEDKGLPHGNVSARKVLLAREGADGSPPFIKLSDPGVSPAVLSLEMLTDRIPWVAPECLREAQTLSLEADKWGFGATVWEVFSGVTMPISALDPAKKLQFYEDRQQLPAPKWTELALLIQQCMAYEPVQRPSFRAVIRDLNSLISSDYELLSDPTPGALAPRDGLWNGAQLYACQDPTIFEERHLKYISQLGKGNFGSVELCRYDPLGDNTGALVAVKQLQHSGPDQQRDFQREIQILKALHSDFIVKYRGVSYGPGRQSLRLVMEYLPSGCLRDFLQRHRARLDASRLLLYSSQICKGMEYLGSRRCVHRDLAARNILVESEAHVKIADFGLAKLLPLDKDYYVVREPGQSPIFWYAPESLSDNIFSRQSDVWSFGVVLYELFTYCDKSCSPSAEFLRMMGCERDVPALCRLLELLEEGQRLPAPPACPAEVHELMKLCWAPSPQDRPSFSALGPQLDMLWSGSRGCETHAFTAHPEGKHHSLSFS

[9] = target: T1, Tyrosine-protein kinase JAK3
Description: Inhibition of JAK3 (unknown origin) in presence of ATP by radiometric assay

[10] = target: Proto-oncogene tyrosine-protein kinase Src (Homo sapiens, UniProt P12931); assay: Inhibition of SRC (unknown origin) by trFRET binding assay
[11] = target: Vascular endothelial growth factor receptor 2 (Homo sapiens, UniProt P35968); assay: Inhibition of KDR (unknown origin) by trFRET binding assay
[12] = target: Tyrosine-protein kinase BTK (Homo sapiens, UniProt Q06187); assay: Inhibition of BTK (unknown origin) by trFRET binding assay
[13] = target: Tyrosine-protein kinase Fyn (Homo sapiens, UniProt P06241); assay: Inhibition of FYN (unknown origin) by trFRET binding assay

Receptor tyrosine-protein kinase erbB-2, sequence (P04626 whole entry): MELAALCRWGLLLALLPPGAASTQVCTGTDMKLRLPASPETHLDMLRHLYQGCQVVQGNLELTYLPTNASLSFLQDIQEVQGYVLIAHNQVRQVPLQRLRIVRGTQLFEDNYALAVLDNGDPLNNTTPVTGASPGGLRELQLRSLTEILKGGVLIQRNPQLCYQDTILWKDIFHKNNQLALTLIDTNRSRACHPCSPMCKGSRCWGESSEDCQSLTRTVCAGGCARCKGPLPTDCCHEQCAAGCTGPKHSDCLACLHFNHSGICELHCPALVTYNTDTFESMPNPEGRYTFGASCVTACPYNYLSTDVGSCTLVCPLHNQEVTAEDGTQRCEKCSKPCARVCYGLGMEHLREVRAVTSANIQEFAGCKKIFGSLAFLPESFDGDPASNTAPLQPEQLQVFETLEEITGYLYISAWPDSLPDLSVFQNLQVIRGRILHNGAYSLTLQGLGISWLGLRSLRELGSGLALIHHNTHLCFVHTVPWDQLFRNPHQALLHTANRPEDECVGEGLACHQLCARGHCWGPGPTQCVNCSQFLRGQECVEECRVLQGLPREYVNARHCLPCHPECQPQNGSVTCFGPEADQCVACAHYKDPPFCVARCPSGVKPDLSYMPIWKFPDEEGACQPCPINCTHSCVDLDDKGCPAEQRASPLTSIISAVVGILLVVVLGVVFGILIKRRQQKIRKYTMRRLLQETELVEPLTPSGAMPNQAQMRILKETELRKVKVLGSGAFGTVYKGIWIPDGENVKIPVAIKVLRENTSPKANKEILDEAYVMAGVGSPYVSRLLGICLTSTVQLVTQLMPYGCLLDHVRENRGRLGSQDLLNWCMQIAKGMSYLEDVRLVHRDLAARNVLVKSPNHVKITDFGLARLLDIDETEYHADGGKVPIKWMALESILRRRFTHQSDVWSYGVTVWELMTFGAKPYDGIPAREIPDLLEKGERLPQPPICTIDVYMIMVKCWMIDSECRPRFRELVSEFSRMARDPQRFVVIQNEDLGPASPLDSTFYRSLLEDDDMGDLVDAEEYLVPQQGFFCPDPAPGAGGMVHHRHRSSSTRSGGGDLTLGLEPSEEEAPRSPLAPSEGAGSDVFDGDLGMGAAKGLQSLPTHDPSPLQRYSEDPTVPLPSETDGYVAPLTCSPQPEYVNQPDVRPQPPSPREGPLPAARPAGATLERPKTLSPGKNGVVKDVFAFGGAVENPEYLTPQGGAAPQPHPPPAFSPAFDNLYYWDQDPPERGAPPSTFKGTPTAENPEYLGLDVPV
Tyrosine-protein kinase Tec, sequence (P42680 whole entry): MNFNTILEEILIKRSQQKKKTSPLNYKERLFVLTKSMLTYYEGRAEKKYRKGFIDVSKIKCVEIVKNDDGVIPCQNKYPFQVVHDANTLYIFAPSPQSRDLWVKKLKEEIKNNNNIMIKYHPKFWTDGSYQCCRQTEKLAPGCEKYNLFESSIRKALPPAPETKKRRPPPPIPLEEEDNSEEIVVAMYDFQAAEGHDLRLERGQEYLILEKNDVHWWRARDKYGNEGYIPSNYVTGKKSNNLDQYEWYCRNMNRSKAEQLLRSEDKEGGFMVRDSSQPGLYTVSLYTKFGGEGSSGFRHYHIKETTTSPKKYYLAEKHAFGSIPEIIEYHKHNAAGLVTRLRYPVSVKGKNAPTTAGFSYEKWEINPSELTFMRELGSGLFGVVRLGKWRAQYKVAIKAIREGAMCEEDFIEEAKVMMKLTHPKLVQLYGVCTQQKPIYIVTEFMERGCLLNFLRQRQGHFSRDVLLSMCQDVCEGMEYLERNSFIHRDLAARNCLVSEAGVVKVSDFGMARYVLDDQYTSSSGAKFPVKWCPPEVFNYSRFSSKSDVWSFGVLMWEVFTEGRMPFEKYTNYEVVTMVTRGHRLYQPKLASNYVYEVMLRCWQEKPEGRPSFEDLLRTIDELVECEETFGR
Tyrosine-protein kinase TXK, sequence (P42681 whole entry): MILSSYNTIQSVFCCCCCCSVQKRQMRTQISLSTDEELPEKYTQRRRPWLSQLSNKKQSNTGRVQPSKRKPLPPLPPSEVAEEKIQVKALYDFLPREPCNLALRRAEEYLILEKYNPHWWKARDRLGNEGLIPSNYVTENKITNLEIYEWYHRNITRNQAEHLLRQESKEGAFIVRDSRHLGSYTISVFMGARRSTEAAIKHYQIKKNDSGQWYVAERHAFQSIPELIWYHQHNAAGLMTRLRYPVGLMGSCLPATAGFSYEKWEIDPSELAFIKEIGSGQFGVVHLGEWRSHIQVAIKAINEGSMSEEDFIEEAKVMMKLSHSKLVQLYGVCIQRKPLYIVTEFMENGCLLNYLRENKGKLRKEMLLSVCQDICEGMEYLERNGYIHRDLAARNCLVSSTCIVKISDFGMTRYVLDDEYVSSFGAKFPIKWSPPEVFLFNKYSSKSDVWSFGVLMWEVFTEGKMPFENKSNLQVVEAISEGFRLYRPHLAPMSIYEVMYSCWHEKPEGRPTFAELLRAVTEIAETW
Serine/threonine-protein kinase 16, sequence (O75716 whole entry): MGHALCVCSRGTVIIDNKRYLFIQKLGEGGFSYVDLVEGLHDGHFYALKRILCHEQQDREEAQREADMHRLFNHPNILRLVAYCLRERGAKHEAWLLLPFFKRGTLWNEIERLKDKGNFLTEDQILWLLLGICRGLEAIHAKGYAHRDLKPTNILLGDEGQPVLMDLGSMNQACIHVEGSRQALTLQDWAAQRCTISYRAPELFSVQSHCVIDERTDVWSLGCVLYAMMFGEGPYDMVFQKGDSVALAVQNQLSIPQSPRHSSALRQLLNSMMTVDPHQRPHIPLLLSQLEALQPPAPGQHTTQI
Cytoplasmic tyrosine-protein kinase BMX, sequence (P51813 whole entry): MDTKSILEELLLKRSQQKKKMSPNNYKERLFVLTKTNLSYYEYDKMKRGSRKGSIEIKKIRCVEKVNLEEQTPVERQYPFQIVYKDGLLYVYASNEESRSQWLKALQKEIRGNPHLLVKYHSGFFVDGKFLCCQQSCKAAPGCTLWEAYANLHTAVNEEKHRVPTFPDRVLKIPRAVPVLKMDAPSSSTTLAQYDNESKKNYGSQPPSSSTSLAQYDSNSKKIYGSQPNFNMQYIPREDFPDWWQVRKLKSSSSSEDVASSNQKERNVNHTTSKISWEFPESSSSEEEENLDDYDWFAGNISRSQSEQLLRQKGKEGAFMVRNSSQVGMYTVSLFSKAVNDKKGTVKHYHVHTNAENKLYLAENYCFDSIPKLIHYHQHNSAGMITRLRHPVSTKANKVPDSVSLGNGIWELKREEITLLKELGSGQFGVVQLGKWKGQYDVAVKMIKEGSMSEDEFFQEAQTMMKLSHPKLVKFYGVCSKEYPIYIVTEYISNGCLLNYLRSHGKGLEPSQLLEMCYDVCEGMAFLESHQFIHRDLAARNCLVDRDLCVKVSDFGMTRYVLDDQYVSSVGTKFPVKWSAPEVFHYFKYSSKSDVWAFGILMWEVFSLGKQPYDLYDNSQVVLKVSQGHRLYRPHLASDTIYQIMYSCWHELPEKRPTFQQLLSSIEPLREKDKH
Vascular endothelial growth factor receptor 2, sequence (P35968 whole entry): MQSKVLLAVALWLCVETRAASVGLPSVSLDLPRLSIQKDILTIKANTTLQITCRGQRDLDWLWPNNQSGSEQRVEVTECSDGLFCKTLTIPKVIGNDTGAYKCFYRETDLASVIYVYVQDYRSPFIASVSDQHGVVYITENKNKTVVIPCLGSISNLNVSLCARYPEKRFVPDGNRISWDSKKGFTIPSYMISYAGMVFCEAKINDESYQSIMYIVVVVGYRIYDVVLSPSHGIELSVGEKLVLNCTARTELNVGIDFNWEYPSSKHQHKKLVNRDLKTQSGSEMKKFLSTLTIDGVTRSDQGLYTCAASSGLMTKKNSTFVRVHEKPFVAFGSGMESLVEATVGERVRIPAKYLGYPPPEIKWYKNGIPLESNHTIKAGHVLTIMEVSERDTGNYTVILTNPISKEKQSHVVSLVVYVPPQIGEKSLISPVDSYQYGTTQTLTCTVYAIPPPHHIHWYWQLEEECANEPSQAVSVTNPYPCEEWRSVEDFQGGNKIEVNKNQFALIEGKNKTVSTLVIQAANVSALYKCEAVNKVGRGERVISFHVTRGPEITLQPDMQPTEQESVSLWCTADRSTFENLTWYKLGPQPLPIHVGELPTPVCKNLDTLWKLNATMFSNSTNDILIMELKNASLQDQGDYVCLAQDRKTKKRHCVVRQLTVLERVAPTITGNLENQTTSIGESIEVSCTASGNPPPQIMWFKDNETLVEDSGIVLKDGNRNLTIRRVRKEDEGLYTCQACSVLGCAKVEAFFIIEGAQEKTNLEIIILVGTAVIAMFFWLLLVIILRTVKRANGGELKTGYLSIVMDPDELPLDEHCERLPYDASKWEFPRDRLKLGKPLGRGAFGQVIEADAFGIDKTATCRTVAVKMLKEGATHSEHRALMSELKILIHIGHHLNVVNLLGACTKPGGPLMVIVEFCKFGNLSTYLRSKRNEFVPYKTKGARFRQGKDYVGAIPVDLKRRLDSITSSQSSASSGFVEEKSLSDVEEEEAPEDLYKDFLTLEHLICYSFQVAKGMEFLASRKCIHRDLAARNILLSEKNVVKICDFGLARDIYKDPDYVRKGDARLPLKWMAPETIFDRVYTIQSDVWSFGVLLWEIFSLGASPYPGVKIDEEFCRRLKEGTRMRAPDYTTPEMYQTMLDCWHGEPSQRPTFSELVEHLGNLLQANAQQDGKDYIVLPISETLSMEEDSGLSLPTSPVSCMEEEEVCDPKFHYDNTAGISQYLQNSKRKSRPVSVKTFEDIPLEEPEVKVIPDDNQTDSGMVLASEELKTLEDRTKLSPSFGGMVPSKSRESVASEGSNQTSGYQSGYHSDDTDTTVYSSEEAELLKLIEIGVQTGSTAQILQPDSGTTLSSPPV

Row | IC50 [1] | IC50 [2] | IC50 [3] | IC50 [4] | IC50 [5] | IC50 [6] | IC50 [7] | IC50 [8] | IC50 [9] | IC50 [10] | IC50 [11] | IC50 [12] | IC50 [13] | Compound
1 | 6930 nM | > 10000 nM | 1670 nM | 2050 nM | 2410 nM |  |  |  |  |  |  |  |  | N#C/C(=C\c1cccc(-c2cccc3[nH]ncc23)c1)C(N)=O
2 |  |  |  |  |  | 1000 nM | 550 nM | 300 nM | 20 nM | 980 nM | 550 nM | 640 nM | 660 nM | C=CC(=O)Nc1ccc2ncn(-c3cncc(Nc4ccccc4)n3)c2c1
